Read-outs that look alike come from different tables or passages of the source.
What was measured:
Assay type in all cases: biochemical
rhVAP-1 = rhVAP-1 (Homo sapiens (Human), UniProt Q16853); test: VAP-1 fluorometric assay (Amplex Red/HRP, H2O2 from oxidative deamination of benzylamine); conditions: rhVAP-1, 50 μM benzylamine, 30 minutes at 37° C., pH 7.4
Method: The capability of compounds described herein to inhibit the enzymatic activity of vascular adhesion protein-1 (VAP-1) was determined by fluorometric assay. The assay procedure provided by R&D Systems was modified slightly for use as an inhibitor screening assay. The assay measured the H2O2 generated from the oxidative deamination of benzylamine by rhVAP-1 by converting Amplex® Red to the fluorescent product, resorufin, via horseradish peroxidase (HRP) and H2O2. Reaction buffer was 10 mM NaHCO3, pH 7.4. A standard curve was prepared by serially diluting H2O2 in reaction buffer. A 10 μM solution of resorufin was prepared in reaction buffer and was dispensed to 2 wells. These wells served as positive control for maximum fluorescence. Reaction buffer was added to the individual wells so that the final volume in each well was 100 μL. Amplex Red was diluted to 1 mM in reaction buffer. A 10 U stock of HRP was prepared in reaction buffer. A reaction cocktail was prepared by mixing equal parts 1 mM Amplex Red with 10 U HRP with 3 parts reaction buffers. The reaction cocktail was added to the appropriate wells, so that that final concentration in the well was 0.05 mM Amplex Red and 0.5 U HRP. A 200 μM solution of benzylamine was prepared in reaction buffer. Benzylamine was added to the appropriate wells so that the final concentration was 50 μM. Inhibitors were diluted in DMSO to 20× and distributed to the appropriate wells. UP-1207 served a positive control. rhVAP-1 was purchased from R&D Systems. The concentration used for each lot was determined so that the activity was equal to the first lot. […] The plate was read at […]. […]
The capability of compounds described herein to inhibit the enzymatic activity of vascular adhesion protein-1 (VAP-1) was determined by fluorometric assay. […] The assay measured the H2O2 generated from the oxidative deamination of benzylamine by rhVAP-1 by converting Amplex® Red to the fluorescent product, resorufin, via horseradish peroxidase (HRP) and H2O2. […] The plate was read at 530/35 emission and 590/35 excitation. […]

rhMAO-A = rhMAO-A (Homo sapiens (Human), UniProt P21397); test: MAO-A inhibition assay (modified Promega MAO-Glo); conditions: substrate 10 μM, 1 hour at room temperature
rhMAO-A, sequence (P21397 whole entry): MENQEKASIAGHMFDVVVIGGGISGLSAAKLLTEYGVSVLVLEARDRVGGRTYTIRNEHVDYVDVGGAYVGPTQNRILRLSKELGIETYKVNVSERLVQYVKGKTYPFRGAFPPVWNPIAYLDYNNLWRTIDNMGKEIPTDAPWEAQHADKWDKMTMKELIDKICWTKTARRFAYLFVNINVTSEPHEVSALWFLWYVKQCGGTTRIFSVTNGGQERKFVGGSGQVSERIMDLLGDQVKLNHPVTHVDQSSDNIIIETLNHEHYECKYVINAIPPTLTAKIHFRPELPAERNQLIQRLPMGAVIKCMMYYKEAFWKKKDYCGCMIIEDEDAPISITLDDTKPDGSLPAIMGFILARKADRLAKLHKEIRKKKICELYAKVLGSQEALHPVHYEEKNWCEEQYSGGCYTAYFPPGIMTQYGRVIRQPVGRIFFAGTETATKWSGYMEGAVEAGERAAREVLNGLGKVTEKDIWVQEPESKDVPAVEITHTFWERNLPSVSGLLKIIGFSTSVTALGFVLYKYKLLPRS
Method: (§1) The capability of compounds described herein to inhibit MAO was determined using a modified Promega MAO-Glo™ assay kit. The substrate ((4S)-4,5-dihydro-2-(6-hydroxybenzothiazolyl)-4-thiazolecarboxylic acid) was converted by MAO to produce methyl ester luciferin. The luciferin was then converted by luciferase to produce oxyluciferin and light. The light was measured using a luminescence setting on the plate reader. A standard curve was prepared by serially diluting luciferin in reaction buffer. The standard kit reaction buffer was used—100 mM HEPES (pH 7.5), 5% glycerol. The substrate was dispensed into the wells so that the final concentration for MAO-A inhibition assay would be 10 μM and MAO-B inhibition assay would be 1 μM. Inhibitors were diluted in DMSO to 4× and distributed to the appropriate wells. Clorgyline and Deprenyl served as positive controls. rhMAO-A and rhMAO-B were purchased from Sigma. MAO-A or MAO-B was added to the appropriate wells. The plate was incubated for 1 hour, at room temperature with gentle shaking (90 rpm). The detection agent was added at equal volume (48 μL detection agent to 48 μL reaction). The plate was incubated for 20 minutes, at room temperature with gentle shaking (90 rpm). The plate luminescence was read. Data processing was performed using Prism software.
(§2) The capability of compounds described herein to inhibit MAO was determined using a modified Promega MAO-Glo™ assay. Test compounds, substrate and enzyme were incubated per manufacturer instructions for 1 hour, at room temperature with gentle shaking (90 rpm) before addition of detection agent. The detection agent was added at equal volume (48 μL detection agent to 48 μL reaction). The plate was incubated for 20 minutes, at room temperature with gentle shaking (90 rpm). The plate luminescence was read. Data processing was performed using Prism software.

rhMAO-B = rhMAO-B (Homo sapiens (Human), UniProt P27338); test: MAO-B inhibition assay (modified Promega MAO-Glo)
rhMAO-B, sequence (P27338 whole entry): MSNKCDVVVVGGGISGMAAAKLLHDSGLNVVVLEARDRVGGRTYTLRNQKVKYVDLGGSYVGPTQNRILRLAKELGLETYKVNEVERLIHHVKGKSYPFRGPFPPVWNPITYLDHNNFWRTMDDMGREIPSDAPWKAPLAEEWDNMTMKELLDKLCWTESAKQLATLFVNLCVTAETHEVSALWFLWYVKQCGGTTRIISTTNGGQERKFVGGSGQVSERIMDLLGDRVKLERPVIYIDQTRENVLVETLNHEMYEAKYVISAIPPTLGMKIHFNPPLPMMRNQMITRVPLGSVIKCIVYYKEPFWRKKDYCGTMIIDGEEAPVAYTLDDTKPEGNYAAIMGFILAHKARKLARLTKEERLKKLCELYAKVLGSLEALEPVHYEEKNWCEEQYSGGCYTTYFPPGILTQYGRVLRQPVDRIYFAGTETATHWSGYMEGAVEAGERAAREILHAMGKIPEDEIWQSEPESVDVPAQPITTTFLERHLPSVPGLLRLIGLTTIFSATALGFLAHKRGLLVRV
Method: as §1, §2

[1] = rhMAO-B, substrate 1 μM, 1 hour at room temperature, read-out: MAO B IC50

rhVAP-1, sequence (Q16853 whole entry): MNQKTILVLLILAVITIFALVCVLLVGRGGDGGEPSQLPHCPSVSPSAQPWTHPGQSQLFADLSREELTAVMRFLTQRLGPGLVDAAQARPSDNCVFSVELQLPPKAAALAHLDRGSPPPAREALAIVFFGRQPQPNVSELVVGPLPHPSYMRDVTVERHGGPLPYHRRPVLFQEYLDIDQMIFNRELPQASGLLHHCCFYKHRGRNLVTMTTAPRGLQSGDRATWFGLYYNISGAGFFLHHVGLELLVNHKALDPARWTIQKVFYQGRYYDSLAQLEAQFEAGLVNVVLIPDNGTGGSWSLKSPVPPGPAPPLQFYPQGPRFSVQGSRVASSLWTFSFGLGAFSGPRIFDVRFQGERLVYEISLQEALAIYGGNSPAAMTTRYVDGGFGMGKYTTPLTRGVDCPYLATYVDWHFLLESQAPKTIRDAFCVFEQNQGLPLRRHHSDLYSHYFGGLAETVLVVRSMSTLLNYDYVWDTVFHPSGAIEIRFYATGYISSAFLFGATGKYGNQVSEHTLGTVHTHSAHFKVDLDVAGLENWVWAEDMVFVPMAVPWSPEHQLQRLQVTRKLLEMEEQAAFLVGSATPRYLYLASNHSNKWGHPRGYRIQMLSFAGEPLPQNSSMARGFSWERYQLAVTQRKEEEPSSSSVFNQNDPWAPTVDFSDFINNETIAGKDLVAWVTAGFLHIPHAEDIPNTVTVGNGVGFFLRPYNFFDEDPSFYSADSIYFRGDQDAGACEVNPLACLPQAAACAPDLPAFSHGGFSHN

| Compound | IC50 (rhVAP-1) | IC50 (rhMAO-A) | IC50 (rhMAO-B; [1]) | IC50 (rhMAO-B) |
| --- | --- | --- | --- | --- |
| CC1CCN(c2nc3ccc(OC/C(=C\F)CN)cc3o2)C1 (stereo not drawn) [Example 42, (Z)-3-fluoro-2-(((2-(3-methylpyrrolidin-1-yl)benzo[d]oxazol-6-yl)oxy)methyl)prop-2-en-1-amine 4-methylbenzenesulfonate] | < 100 nM | 1000 to 10000 nM | 1000 to 10000 nM |  |
| CCCCn1nc2ccc(OC/C(=C\F)CN)cc2n1 [Example 66, (Z)-2-(((2-butyl-2H-benzo[d][1,2,3]triazol-5-yl)oxy)methyl)-3-fluoroprop-2-en-1-amine 4-methylbenzenesulfonate] | < 100 nM | 1000 to 10000 nM |  | 100 to 1000 nM |
| CC1CCN(c2nc3ccc(OC/C(=C/F)CN)cc3o2)C1 (stereo not drawn) [Example 30, (E)-3-fluoro-2-(((2-(3-methylpyrrolidin-1-yl)benzo[d]oxazol-6-yl)oxy)methyl)prop-2-en-1-amine 4-methylbenzenesulfonate] | < 100 nM | 10000 to 30000 nM | 100 to 1000 nM |  |
